Results taken from US6808904B2, “Herbicide-tolerant protox genes produced by DNA shuffling” (priority 1994, dated 2004).

Key:
[1] = test system: Arabidopsis line expressing AraC-2Ile+AraC305Leu; experiment: Cross tolerance in a seed germination assay, homozygous Arabidopsis line with AraC-2Ile+AraC305Leu; format: in vivo, Arabidopsis thaliana; conditions: AraC-2Ile+AraC305Leu line vs wt
Method: Using the procedure described above, an Arabidopsis protox-1 cDNA containing a TAC to ATG (Tyrosine to Methionine) change at nucleotides 1306-1308 in the protox-1 sequence (SEQ ID NO:1) was fused to the native protox-1 promoter fragment and transformed into Arabidopsis thaliana. […] Seed from the vacuum infiltrated plants was collected and plated on a range (10.0 nM-1.0 uM) of a protox inhibitory aryluracil herbicide of formula XVII. Multiple experiments with wild type Arabidopsis have shown that a 10.0 nM concentration of this compound is sufficient to prevent normal seedling germination. Transgenic seeds expressing the AraC-2Met altered enzyme fused to the native protox-1 promoter produced normal Arabidopsis seedlings at herbicide concentrations up to 500 nM, indicating at least 50-fold higher herbicide tolerance when compared to wild-type Arabidopsis. This promoter/altered protox enzyme fusion therefore functions as an effective selectable marker for plant transformation. Several of the plants that germinated on 100.0 nM of protox-inhibiting herbicide were transplanted to soil, grown 2-3 weeks, and tested in a spray assay with various concentrations of the protox-inhibiting herbicide. When compared to empty vector control transformants, the AraPT1Pro/AraC-2Met transgenics were >10-fold more tolerant to the herbicide spray.
Using the procedure described above, an Arabidopsis protox-1 cDNA containing both a TAC to ATC (tyrosine to isoleucine) change at nucleotides 1306-1308 and a TCA to TTA (serine to leucine) change at nucleotides 945-947 in the protox-1 sequence (SEQ ID NO:1) was fused to the native protox-1 promoter fragment and transformed into Arabidopsis thaliana.

[2] = biological target: T1, plant protox mutants (Arabidopsis protox-1) in SASX38 (Arabidopsis thaliana, UniProt P55826, T56K/Y426C); experiment: Bacterial cross-tolerance testing of resistant mutant plasmids in SASX38, Arabidopsis protox-1 mutants; format: cell-based; set-up: key to Cross tolerance, AraC-1Val / Cross tolerance, AraC-2Cys / Cross tolerance, AraC-1Thr / Cross tolerance, AraC-3Thr / Cross tolerance, AraC-2Ile / Cross tolerance, AraC-2Cys + AraC425Ser: + = 10× or more tolerant than WT; ++ = 100× or more tolerant than WT; − = no cross tolerance; conditions: mutant AraC-2Cys vs WT plasmid in SASX38
T1 construct: contains only 17 amino acids of the putative chloroplast transit peptide; expressed in transfected cells; host or cells: E. coli SASX38 (hemG mutant)
Method: (§1) Resistant mutant plasmids, originally identified based on resistance against a single protox inhibitory herbicide, were tested against a spectrum of other protox inhibiting compounds. For this test, the SASX38 strain containing the wild-type plasmid is plated on a range of concentrations of each compound to determine the lethal concentration for each one. Resistant mutant plasmids in SASX38 are plated and scored for the ability to survive on a concentration of each compound at least 10 fold higher than the concentration that is lethal to the SASX38 strain containing the wild-type plasmid.

[3] = test system: plant protox mutants (Arabidopsis protox-1) in SASX38; experiment: as above; format: cell-based; set-up: key to Cross tolerance, AraC-1Val / Cross tolerance, AraC-2Cys / Cross tolerance, AraC-1Thr / Cross tolerance, AraC-3Thr / Cross tolerance, AraC-2Ile / Cross tolerance, AraC-2Cys + AraC425Ser: + = 10× or more tolerant than WT; ++ = 100× or more tolerant than WT; − = no cross tolerance; conditions: mutant AraC-3Thr vs WT plasmid in SASX38
Method: as §1

[4] = biological target: T2, plant protox mutants (Arabidopsis protox-1) in SASX38 (Arabidopsis thaliana, UniProt P55826, A220V/T56K); experiment: as above; format: cell-based; set-up: key to Cross tolerance, AraC-1Val / Cross tolerance, AraC-2Cys / Cross tolerance, AraC-1Thr / Cross tolerance, AraC-3Thr / Cross tolerance, AraC-2Ile / Cross tolerance, AraC-2Cys + AraC425Ser: + = 10× or more tolerant than WT; ++ = 100× or more tolerant than WT; − = no cross tolerance; conditions: mutant AraC-1Val vs WT plasmid in SASX38
T2 construct: contains only 17 amino acids of the putative chloroplast transit peptide; expressed in transfected cells; host or cells: E. coli SASX38 (hemG mutant)
Method: as §1

[5] = biological target: T3, plant protox mutants (Arabidopsis protox-1) in SASX38 (Arabidopsis thaliana, UniProt P55826, A220T/T56K); experiment: as above; format: cell-based; set-up: key to Cross tolerance, AraC-1Val / Cross tolerance, AraC-2Cys / Cross tolerance, AraC-1Thr / Cross tolerance, AraC-3Thr / Cross tolerance, AraC-2Ile / Cross tolerance, AraC-2Cys + AraC425Ser: + = 10× or more tolerant than WT; ++ = 100× or more tolerant than WT; − = no cross tolerance; conditions: mutant AraC-1Thr vs WT plasmid in SASX38
T3 construct: contains only 17 amino acids of the putative chloroplast transit peptide; expressed in transfected cells; host or cells: E. coli SASX38 (hemG mutant)
Method: as §1

[6] = biological target: T4, plant protox mutants (MzC-1Val, maize protox-1) in SASX38 (Arabidopsis thaliana, UniProt P55826, A220V/A252T/A259N/A262P/A292S/A82G/A83V/D204A/D323E/D487E/D93A/DEL80-81/E103P/E263P/E288N/E311D/E351S/E499D/F107Y/F178L/F250I/F483L/G171P/G277A/G306S/G313K/G344N/G441S/H340Y/I100T/I174L/I370V/I421V/I485L/I71T/I87L/INS101VE/K237R/K257S/K359R/K388Q/K457N/K465V/K78R/K92R/L137F/L159P/L310S/L325V/L345I/L360F/L436V/L86V/M122V/N105E/N149E/N241T/N258K/N316V/N355D/N459T/N85D/P266A/P418D/P458S/P84G/Q240E/Q272K/R284A/R293S/S186P/S291T/S305T/S312D/S330A/S352D/S369T/S430A/S439T/S460A/S491A/S492A/S495R/S496G/T141N/T160A/T318E/T379K/T397S/T461V/T488A/T494D/T56K/V126A/V334I/V337I/V95P); experiment: Bacterial cross-tolerance testing of resistant mutant plasmids in SASX38, maize protox-1 mutant; format: cell-based; conditions: mutant MzC-1Val vs WT plasmid in SASX38
T4 construct: expressed in transfected cells; host or cells: E. coli SASX38 (hemG mutant)
Method: as §1

[7] = biological target: T5, plant protox mutants (Arabidopsis protox-1) in SASX38 (Arabidopsis thaliana, UniProt P55826, A220L/T56K); experiment: Bacterial cross-tolerance testing of resistant mutant plasmids in SASX38, Arabidopsis protox-1 mutants; format: cell-based; set-up: key to Cross tolerance, AraC-1Val / Cross tolerance, AraC-2Cys / Cross tolerance, AraC-1Thr / Cross tolerance, AraC-3Thr / Cross tolerance, AraC-2Ile / Cross tolerance, AraC-2Cys + AraC425Ser: + = 10× or more tolerant than WT; ++ = 100× or more tolerant than WT; − = no cross tolerance; conditions: mutant AraC-1Leu
T5 construct: contains only 17 amino acids of the putative chloroplast transit peptide; expressed in transfected cells; host or cells: E. coli SASX38 (hemG mutant)
Method: as §1

[8] = biological target: T6, plant protox mutants (Arabidopsis protox-1) in SASX38 (Arabidopsis thaliana, UniProt P55826, N425S/T56K/Y426C); experiment: as above; format: cell-based; set-up: key to Cross tolerance, AraC-1Val / Cross tolerance, AraC-2Cys / Cross tolerance, AraC-1Thr / Cross tolerance, AraC-3Thr / Cross tolerance, AraC-2Ile / Cross tolerance, AraC-2Cys + AraC425Ser: + = 10× or more tolerant than WT; ++ = 100× or more tolerant than WT; − = no cross tolerance; conditions: mutant AraC-2Cys + AraC425Ser
T6 construct: contains only 17 amino acids of the putative chloroplast transit peptide; expressed in transfected cells; host or cells: E. coli SASX38 (hemG mutant)
Method: as §1

[9] = biological target: T7, plant protox mutants (Arabidopsis protox-1) in SASX38 (Arabidopsis thaliana, UniProt P55826, N425S/T56K/Y426M); experiment: as above; format: cell-based; set-up: key to Cross tolerance, AraC-1Val / Cross tolerance, AraC-2Cys / Cross tolerance, AraC-1Thr / Cross tolerance, AraC-3Thr / Cross tolerance, AraC-2Ile / Cross tolerance, AraC-2Cys + AraC425Ser: + = 10× or more tolerant than WT; ++ = 100× or more tolerant than WT; − = no cross tolerance; conditions: mutant AraC-2Met + AraC425Ser
T7 construct: contains only 17 amino acids of the putative chloroplast transit peptide; expressed in transfected cells; host or cells: E. coli SASX38 (hemG mutant)
Method: as §1

[10] = biological target: T8, plant protox mutants (Arabidopsis protox-1) in SASX38 (Arabidopsis thaliana, UniProt P55826, N425S/T56K/Y426L); experiment: as above; format: cell-based; set-up: key to Cross tolerance, AraC-1Val / Cross tolerance, AraC-2Cys / Cross tolerance, AraC-1Thr / Cross tolerance, AraC-3Thr / Cross tolerance, AraC-2Ile / Cross tolerance, AraC-2Cys + AraC425Ser: + = 10× or more tolerant than WT; ++ = 100× or more tolerant than WT; − = no cross tolerance; conditions: mutant AraC-2Leu + AraC425Ser
T8 construct: contains only 17 amino acids of the putative chloroplast transit peptide; expressed in transfected cells; host or cells: E. coli SASX38 (hemG mutant)
Method: as §1

T1 sequence (P55826 41-537 T56K/Y426C): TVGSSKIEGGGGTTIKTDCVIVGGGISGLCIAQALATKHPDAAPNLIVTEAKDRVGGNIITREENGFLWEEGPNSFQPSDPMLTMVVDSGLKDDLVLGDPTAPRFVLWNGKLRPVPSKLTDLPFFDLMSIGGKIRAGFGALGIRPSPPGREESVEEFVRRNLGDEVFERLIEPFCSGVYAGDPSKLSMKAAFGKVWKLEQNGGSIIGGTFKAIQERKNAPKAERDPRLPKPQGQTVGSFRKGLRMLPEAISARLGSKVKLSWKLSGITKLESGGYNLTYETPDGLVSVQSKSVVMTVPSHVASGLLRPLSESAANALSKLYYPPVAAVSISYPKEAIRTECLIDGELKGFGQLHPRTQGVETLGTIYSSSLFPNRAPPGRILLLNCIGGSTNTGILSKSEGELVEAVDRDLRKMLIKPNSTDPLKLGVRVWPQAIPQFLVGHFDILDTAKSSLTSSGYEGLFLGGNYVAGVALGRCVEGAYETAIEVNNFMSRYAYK
T2 sequence (P55826 41-537 T56K/A220V): as the sequence (P55826 41-537 T56K/Y426C) above, with A180V, C386Y counted along it
T4 sequence (P55826 other isoform, or with tags, fused parts or gaps with the stated changes): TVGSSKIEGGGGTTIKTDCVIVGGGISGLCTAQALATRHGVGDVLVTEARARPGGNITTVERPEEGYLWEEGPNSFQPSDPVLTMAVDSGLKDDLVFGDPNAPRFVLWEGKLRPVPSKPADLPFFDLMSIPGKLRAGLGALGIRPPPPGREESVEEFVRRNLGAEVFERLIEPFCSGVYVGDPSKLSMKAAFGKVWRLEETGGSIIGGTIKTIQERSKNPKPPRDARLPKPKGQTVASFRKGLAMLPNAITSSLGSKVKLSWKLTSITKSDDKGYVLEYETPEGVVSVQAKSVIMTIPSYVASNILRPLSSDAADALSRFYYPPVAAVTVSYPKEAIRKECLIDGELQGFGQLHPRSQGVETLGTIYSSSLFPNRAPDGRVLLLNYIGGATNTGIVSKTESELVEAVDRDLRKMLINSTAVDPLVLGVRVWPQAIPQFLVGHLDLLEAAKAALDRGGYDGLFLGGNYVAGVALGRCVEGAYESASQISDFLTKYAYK
T3 sequence (P55826 41-537 T56K/A220T): as the sequence (P55826 41-537 T56K/Y426C) above, with A180T, C386Y counted along it
T6 sequence (P55826 41-537 T56K/N425S/Y426C): as the sequence (P55826 41-537 T56K/Y426C) above, with N385S counted along it
T7 sequence (P55826 41-537 T56K/N425S/Y426M): as the sequence (P55826 41-537 T56K/Y426C) above, with N385S, C386M counted along it
T5 sequence (P55826 41-537 T56K/A220L): as the sequence (P55826 41-537 T56K/Y426C) above, with A180L, C386Y counted along it
T8 sequence (P55826 41-537 T56K/N425S/Y426L): as the sequence (P55826 41-537 T56K/Y426C) above, with N385S, C386L counted along it

CCOC(=O)C(C)OC(=O)c1cc(Oc2ccc(C(F)(F)F)cc2Cl)ccc1[N+](=O)[O-] (stereo not shown) [IVd] was tested, and the Tolerance [1] was “± (± ≦ 10× more tolerant than wt)”.
CC(Cl)C(=O)Nc1c([N+](=O)[O-])cnn1-c1c(Cl)cc(C(F)F)cc1Cl (stereo not shown) [XXIa] was tested, and the Tolerance [1] was “+ (+ ≧ 10× more tolerant than wt)”.
For CCOC(=O)COc1cc(-c2nn(C)c(OC(F)F)c2Cl)c(F)cc1Cl [XII], the “Cross tolerance, AraC-2Cys” value [2] was “−”, the “Cross tolerance, AraC-3Thr” value [3] was “++ (++ = 100× or more tolerant than WT)” and the “Cross tolerance, AraC-1Val” value [4] was “+ (+ = 10× or more tolerant than WT)”. The “Cross tolerance, AraC-1Thr” value [5] was “++ (++ = 100× or more tolerant than WT)” and the “Cross tolerance, MzC-1Val” value [6] was “++ (++ = 100× or more tolerant than WT)”.
In the case of Cc1nn(-c2cc(NS(C)(=O)=O)c(Cl)cc2Cl)c(=O)n1C(F)F [X], the Tolerance [1] was “+ (+ ≧ 10× more tolerant than wt)”.
With C#CC(C)Oc1cc(N2C(=O)C3=C(CCCC3)C2=O)c(F)cc1Cl (stereo not shown) [XV] the “Cross tolerance, AraC-2Cys” value [2] was “+ (+ = 10× or more tolerant than WT)”, the “Cross tolerance, AraC-1Leu” value [7] was “++ (++ = 100× or more tolerant than WT)” and the “Cross tolerance, AraC-2Cys + AraC425Ser” value [8] was “++ (++ = 100× or more tolerant than WT)”. The “Cross tolerance, AraC-3Thr” value [3] was “+ (+ = 10× or more tolerant than WT)”, the “Cross tolerance, AraC-1Val” value [4] was “+ (+ = 10× or more tolerant than WT)” and the “Cross tolerance, AraC-2Met + AraC425Ser” value [9] was “++ (++ = 100× or more tolerant than WT)”. The “Cross tolerance, AraC-1Thr” value [5] was “+ (+ = 10× or more tolerant than WT)” and the “Cross tolerance, MzC-1Val” value [6] was “+ (+ = 10× or more tolerant than WT)”.
For C#CCN1C(=O)COc2cc(F)c(N3C(=O)C4=C(CCCC4)C3=O)cc21 [XVI], the Tolerance [1] was “+++ (+++ ≧ 1000× more tolerant than wt)”, the “Cross tolerance, AraC-2Cys” value [2] was “−” and the “Cross tolerance, AraC-2Cys + AraC425Ser” value [8] was “+ (+ = 10× or more tolerant than WT)”. For the same compound, the “Cross tolerance, AraC-3Thr” value [3] was “−”, the “Cross tolerance, AraC-1Val” value [4] was “−” and the “Cross tolerance, AraC-2Met + AraC425Ser” value [9] was “++ (++ = 100× or more tolerant than WT)”. The “Cross tolerance, AraC-2Leu + AraC425Ser” value [10] was “++ (++ = 100× or more tolerant than WT)”, the “Cross tolerance, AraC-1Thr” value [5] was “−” and the “Cross tolerance, MzC-1Val” value [6] was “+ (+ = 10× or more tolerant than WT)”.
